Consider five compounds from patent US20210186934A1, “COMPOSITIONS AND USES THEREOF” (LIVERPOOL JOHN MOORES UNIVERSITY, priority 2018, published 2021).

Type in all cases: cell-based, human
In assay [1] the test system is miR-184. Kind of assay: Induction of miR-184 in HPEK by differentiation agents (sqRT-PCR). The conditions noted are these: 1 or 5 days. The procedure: FIG. 1: Induction of miR-184 during Ca^2+-dependent HPEK differentiation. […] Data shown represent means +SEM from 3 independent experiments. Expression was normalized to SNORD72 for miR-184 and GAPDH for IVL. Values are presented relative to 0.07 mM Ca^2+ or DMSO-treated controls;
Human progenitor epidermal keratinocytes (HPEK) were isolated from human foreskin or purchased from CellnTec (Bern, Switzerland). For isolation, tissues were washed with phosphate-buffered saline, trimmed of any subcutaneous fat, connective tissues and blood vessels before digestion with 20 mg/ml dispase (Sigma) at 4° C. overnight with further digestion for 1 hour at room temperature. Thereafter, the epidermis was separated and incubated in 0.5% TrpLE (Thermofisher scientific, Cheshire, UK) for 5 min at 37° C., 5% CO2. Keratinocytes were centrifuged (1200 rpm for 5 min) and re-suspended in CnT-Prime (CellnTec) supplemented with 1% penicillin/streptomycin/amphotericin B (PSA) and IsoBoost supplement CnT-ISO (CellnTec) to enhance isolation efficiency. Culture medium was changed every 2-3 days until cells reached 80% confluence with PSA exclusion from the culture medium after the first passage. Keratinocytes were sub-cultured using CnT-Accutase (CellnTec) and re-cultured at 4×10^3 cells per cm^2. For differentiation, keratinocytes were at 3×10^5/well of a 6-well plate in CnT-Prime and allowed to reach confluence before adjusting the medium to 1.5 mM calcium using CaCl2.
(§1) Total RNA was isolated from cells using the AllPrep DNA/RNA/miRNA Universal kit (Qiagen, Manchester, UK). RNA concentration was determined using a NanoDrop™ 2000c. Complementary DNA (cDNA) was synthesised from 400 ng of RNA using the miScript II RT kit (Qiagen) with HiFlex buffer. PCR amplifications were performed with Quantifast SYBR Green and QuantiTect miRNA/universal primers or RT^2 mRNA primer assays, all from Qiagen. Thermocycling was performed on a Rotor-Gene® as follows: 95° C. for 15 min, followed by 40 cycles of 94° C. for 15 s, 55° C. for 30 s and 70° C. for 30 s. Relative expression of miRNA and mRNA determined using the 2^−ΔΔCT relative quantification method (Livak and Schmittgen, 2001).
(§2) Expression of miR-184 in HPEK was evaluated and maintained in parallel cultures under low (0.07 mM) to sustain proliferation or high (1.5 mM) extracellular Ca^2+ to promote differentiation.

Another assay concerns involucrin (IVL). As to the kind of experiment: IVL expression in HPEK treated with differentiation agents (sqRT-PCR). The conditions noted are these: 100 nM, 5 d, normalized to GAPDH. The method, then:
FIG. 1: Induction of miR-184 during Ca^2+-dependent HPEK differentiation. (a) HPEKs grown to confluence were treated with high (1.5 mM) Ca^2+, 100 nM 1,25(OH)D3, 100 nM PMA or dimethyl sulfoxide (DMSO) vehicle for 1 or 5 days (d). (b) Upregulation of the HPEK differentiation marker involucrin (IVL) during 5 d exposure to 1.5 mM Ca^2+, 100 nM 1,25(OH)D3 or 100 nM PMA. Data shown represent means +SEM from 3 independent experiments. Expression was normalized to SNORD72 for miR-184 and GAPDH for IVL. Values are presented relative to 0.07 mM Ca^2+ or DMSO-treated controls;
Human progenitor epidermal keratinocytes (HPEK) were isolated from human foreskin or purchased from CellnTec (Bern, Switzerland). […]
Total RNA was isolated from cells using the AllPrep DNA/RNA/miRNA Universal kit (Qiagen, Manchester, UK). RNA concentration was determined using a NanoDrop™ 2000c. […] PCR amplifications were performed with Quantifast SYBR Green and QuantiTect miRNA/universal primers or RT^2 mRNA primer assays, all from Qiagen. […] Relative expression of miRNA and mRNA determined using the 2^−ΔΔCT relative quantification method (Livak and Schmittgen, 2001).
as §2

A further assay relates to UCA1. Kind of assay: LncRNA UCA1 induction in scratched HPEK monolayers. The conditions noted are these: 5 days. The procedure: (§3) FIG. 6: Induction of miR-184 in scratched monolayers. Confluent HPEK monolayers were scratched and cells harvested after 5 days in low (0.07 mM) or high (1.5 mM) Ca^2+ media as indicated. The SOCE blockers Gd^3+ and BTP2 and were added 1 h after scratching and refreshed after day 2. (a-d) miR-184 expression normalized to SNORD72. (c-d) LncRNA UCA1 expression normalised to GAPDH; and
as §1
The long non-coding RNA UCA1 (urothelial carcinoma associated 1) has been identified as a competing endogenous RNA (ceRNA) with four predicted miR-184-binding sites (Zhou et al., 2017). The expression of UCA1 in the HPEK was therefore examined. […]

Assay [2] deals with miR-184. Kind of assay: miR-184 induction in scratched HPEK monolayers. The conditions noted are these: low Ca2+ (0.07 mM), 5 days. The procedure:
as §3
Total RNA was isolated from cells using the AllPrep DNA/RNA/miRNA Universal kit (Qiagen, Manchester, UK). RNA concentration was determined using a NanoDrop™ 2000c. Complementary DNA (cDNA) was synthesised from 400 ng of RNA using the miScript II RT kit (Qiagen) with HiFlex buffer. PCR amplifications were performed with Quantifast SYBR Green and QuantiTect miRNA/universal primers or RT^2 mRNA primer assays, all from Qiagen. […] Relative expression of miRNA and mRNA determined using the 2^−ΔΔCT relative quantification method (Livak and Schmittgen, 2001).
The inventors maintained the HPEK in low Ca^2+ (0.07 mM) medium and allowed them to approach confluence in 6-well plates prior to wounding. Cells were harvested 5 days later and miR-184 expression assessed as described above. […] In contrast, when extracellular Ca^2+ was raised to 1.5 mM to 5 days to evoke HPEK differentiation, only a relatively modest 10-fold rise in miR-184 expression was detected (FIG. 6d). […]

Another assay deals with ORAI1. Kind of assay: ORAI1 expression in HPEK. The conditions noted are these: data not shown. An excerpt:
To determine whether Ca^2+-dependent induction of miR-184 was associated with SOCE, HPEK were maintained in high Ca^2+ for 5 days in the presence of the SOCE blocker gadolinium (III) Gd^3+ or the pharmacologic ORAI1 inhibitor BTP2. Alternatively, ORAI1 expression was ablated using short-interfering RNA (siRNA) that was transferred into the cells using nucleofection 1 d prior to Ca^2+ elevation.

As to `C=C1/C(=C\C=C2/CCC[C@]3(C)[C@@H]([C@H](C)CCCC(C)(C)O)CC[C@@H]23)C[C@@H](O)C[C@@H]1O` [1, 25-(OH)2D3, 1, 25-dihydroxyvitamin D3], the “effect on miR-184 expression” value is “did not promote miR-184 expression” with miR-184 [1] (100 nM, vs DMSO) and “neither phorbol ester nor 1, 25-dihydroxyvitamin D3 had any effect” with miR-184 [1] (100 nM, vs DMSO, listed as 1, 25-dihydroxyvitamin D3). The IVL expression result in the assay with involucrin (IVL) is “evoked robust IVL expression”.
As for `Cc1nnsc1C(=O)Nc1ccc(-n2nc(C(F)(F)F)cc2C(F)(F)F)cc1` [BTP2], the “reduction of UCA1 induction” value with UCA1 was “around 50%”. In addition, the “effect on scratch-evoked induction of miR-184” value with miR-184 [2] was “abolished the induction of miR-184”. The “effect on ORAI1 expression” value in the assay on ORAI1 is recorded as “little effect on ORAI1 expression”.
In the case of `[Cl][Gd]([Cl])[Cl]` [Gd^3+, Gadolinium(III) chloride], in the assay on UCA1, the “reduction of UCA1 induction” value is given as “around 50%”. Also, the “effect on scratch-evoked induction of miR-184” value in the assay with miR-184 [2] is listed as “abolished the induction of miR-184”. In the assay on ORAI1, the “effect on ORAI1 expression” value is recorded as “little effect on ORAI1 expression”.
Consider `CCCCCCCCCCCCCC(=O)O[C@@H]1[C@@H](C)[C@@]2(O)[C@@H](C=C(CO)C[C@]3(O)C(=O)C(C)=C[C@@H]23)[C@@H]2C(C)(C)[C@]12OC(C)=O` [PMA, phorbol 12-myristate 13-acetate], for which the “effect on miR-184 expression” value is on record as “did not promote miR-184 expression” with miR-184 [1] (100 nM, vs DMSO) and “neither phorbol ester nor 1, 25-dihydroxyvitamin D3 had any effect” in the assay on miR-184 [1] (100 nM, vs DMSO, listed as phorbol ester). Also, the IVL expression result in the assay with involucrin (IVL) was “evoked robust IVL expression”.
Regarding “IFNγ: Interferon gamma, reported to trigger keratinocyte differentiation”, the “effect on miR-184 expression” value in the assay on miR-184 [1] (10 ng/ml, data not shown) is on record as “no induction of miR-184 was observed”.
